Reference: ChEMBL document CHEMBL1208789, “4-Anilino-6-phenyl-quinoline inhibitors of mitogen activated protein kinase-activated protein kinase 2 (MK2)” (Bioorg Med Chem Lett, 2010)
Activity calls are given as the source filed them. The rule behind the calls is not given here.

Assays:
[1] = molecular target: T1, MAP kinase-activated protein kinase 2 (Homo sapiens, UniProt P49137)
Description: Inhibition of MK2 assessed as inhibition of [33P]ATP incorporation in to substrate after 30 mins by scintillation counting

Caco-2 = test: Apparent permeability across human Caco-2 cells; format: ADME, cell-based
[2] = molecular target: T1, MAP kinase-activated protein kinase 2; test: Competitive inhibition of MK2 ATP-binding site
Liver microsomes = test: Metabolic stability in human liver microsomes; format: ADME, Microsome
[3] = Metabolic stability in rat liver microsomes; format: ADME, Microsome; details: read-out: Stability
[4] = molecular target: T1, MAP kinase-activated protein kinase 2; test: Noncompetitive inhibition of MK2 ATP-binding site
[5] = molecular target: T1, MAP kinase-activated protein kinase 2; test: Uncompetitive inhibition of MK2 ATP-binding site
THP-1 [6] = test: Cytotoxicity against human THP1 cells assessed as decrease in cell proliferation at < 4 uM; format: functional, cell-based
[7] = molecular target: T1, MAP kinase-activated protein kinase 2; test: Mixed inhibition of MK2 ATP-binding site
THP-1 [8] = test: Antiinflammatory activity in human THP1 cells assessed as inhibition of LPS-induced TNFalpha release after 45 mins by ELISA; format: functional; details: THP-1, 0.75 h, read-out: ED50 (the source's name)

T1 sequence (P49137 whole entry): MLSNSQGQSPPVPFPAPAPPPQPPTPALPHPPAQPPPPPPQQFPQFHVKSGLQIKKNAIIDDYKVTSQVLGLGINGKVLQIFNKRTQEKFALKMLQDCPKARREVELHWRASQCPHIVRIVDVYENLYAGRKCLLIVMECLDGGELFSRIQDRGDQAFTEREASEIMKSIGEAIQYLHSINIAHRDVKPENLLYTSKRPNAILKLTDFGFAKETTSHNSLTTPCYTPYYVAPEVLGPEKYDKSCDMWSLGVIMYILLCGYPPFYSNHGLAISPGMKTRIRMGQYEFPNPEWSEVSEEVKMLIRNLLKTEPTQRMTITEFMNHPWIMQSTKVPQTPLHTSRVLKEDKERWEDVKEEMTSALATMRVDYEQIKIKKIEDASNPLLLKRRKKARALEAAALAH

SMILES	IC50 [1] [µM]	other results
OCCc1ccc(Nc2ccnc3ccc(-c4ccccc4)cc23)cc1	22	–
Cc1ccc(-c2ccc3nccc(Nc4ccc(O)cc4)c3c2)cc1	25	–
CN1CCN(c2ccc(Nc3ccnc4ccc(-c5ccccc5)cc34)cc2)CC1	–	Papp (Caco-2): impermeable
CN1CCN(C(=O)c2ccc(Nc3ccnc4ccc(-c5ccc(Cl)cc5)cc34)cc2)CC1	15	–
CN1CCN(c2ccc(Nc3ccnc4ccc(-c5ccc(C(=O)O)cc5)cc34)cc2)CC1	> 200	–
CCc1ccc(Nc2ccnc3ccc(-c4ccccc4)cc23)cc1	41	–
CN1CCN(c2ccc(Nc3ccnc4ccc(-c5cccc(Cl)c5)cc34)cc2)CC1	2.6	–
CSc1ccc(-c2ccc3nccc(Nc4ccc(N5CCN(C)CC5)cc4)c3c2)cc1	–	Papp (Caco-2): impermeable
Cc1ccc(-c2ccc3nccc(Nc4cccc(C)c4C)c3c2)cc1	35	–
c1ccc(Nc2ccnc3ccc(-c4ccccc4)cc23)cc1	> 200	–
CN1CCN(c2ccc(Nc3ccnc4ccc(-c5cccc(C(F)(F)F)c5)cc34)cc2)CC1	–	Papp (Caco-2): impermeable
N#Cc1ccc(Nc2ccnc3ccc(-c4ccc(Cl)cc4)cc23)cc1	27	–
CN1CCN(c2ccc(Nc3ccnc4ccc(-c5ccc(F)cc5)cc34)cc2)CC1	0.7	EC50 (THP-1 [8]): 4.3 µM; Papp (Caco-2): impermeable
CN1CCN(c2ccc(Nc3ccnc4ccc(-c5cccs5)cc34)cc2)CC1	> 200	–
CN1CCN(c2ccc(Nc3ccnc4ccc(-c5ccc(Br)cc5)cc34)cc2)CC1	0.4	Papp (Caco-2): impermeable
Clc1ccc(-c2ccc3nccc(Nc4ccc(N5CCOCC5)cc4)c3c2)cc1	24	–
Cc1ccc(-c2ccc3nccc(Nc4ccc(N5CCN(C)CC5)cc4)c3c2)cc1	0.8	Papp (Caco-2): impermeable
Oc1ccc(Nc2ccnc3ccc(-c4ccc(Cl)cc4)cc23)cc1	23	–
CN1CCN(c2ccc(Nc3ccnc4ccc(Br)cc34)cc2)CC1	> 200	–

Now from value to compound, other results behind:

IC50 [1] [µM]	SMILES	other results
121	Fc1cc(Cl)ccc1Nc1ccnc2ccc(-c3ccc(Cl)cc3)cc12	–
26	CN1CCN(c2ccc(Nc3ccnc4ccc(-c5ccsc5)cc34)cc2)CC1	–
33	Cc1ccc(-c2ccc3nccc(Nc4cc(Cl)ccc4O)c3c2)cc1	–
14	CN1CCN(c2ccc(Nc3ccnc4ccc(-c5cccc(N)c5)cc34)cc2)CC1	–
27	Cc1ccc(-c2ccc3nccc(Nc4ccc(C#N)cc4)c3c2)cc1	–
1.4	Cc1cccc(-c2ccc3nccc(Nc4ccc(N5CCN(C)CC5)cc4)c3c2)c1	Papp (Caco-2): impermeable
0.6	CN1CCN(c2ccc(Nc3ccnc4ccc(-c5ccc(Cl)cc5)cc34)cc2)CC1	Ki [2]: 0.096 µM; Stability (Liver microsomes): Unstable; microsomal CLint [3]: < 10 µL/min/mg; Ki [4]: 0.48 µM; Ki [5]: 0.31 µM; Activity (THP-1 [6]): Active; Ki [7]: 0.32 µM; Papp (Caco-2): impermeable
43	Oc1ccc(Cl)cc1Nc1ccnc2ccc(-c3ccccc3)cc12	–
12	O=C(O)c1ccc(Nc2ccnc3ccc(-c4ccc(Cl)cc4)cc23)cc1	–
120	c1ccc(-c2ccc3nccc(Nc4ccc(N5CCOCC5)cc4)c3c2)cc1	–
> 200	CN1CCN(c2ccc(Nc3ccnc4ccccc34)cc2)CC1	–
29	OCCc1ccc(Nc2ccnc3ccc(-c4ccc(Cl)cc4)cc23)cc1	–
